Reference: ChEMBL document CHEMBL2396621, “Design, synthesis and biological evaluation of 2-mercapto-3-phenethylquinazoline bearing anilide fragments as potential antitumor agents: molecular docking study” (2013)

How the values were obtained:
Format in all cases: functional
[1] = Cytotoxicity against human leukemia cells after 48 hrs by coulter counter analysis; settings: Leukemia cell
[2] = Cytotoxicity against human breast cancer cells after 48 hrs by coulter counter analysis; settings: Cancer cell lines
[3] = Cytotoxicity against human renal cancer cells after 48 hrs by coulter counter analysis; settings: Cancer cell lines
[4] = Cytotoxicity against human prostate cancer cells after 48 hrs by coulter counter analysis; settings: Cancer cell lines
[5] = Cytotoxicity against human ovarian cancer cells after 48 hrs by coulter counter analysis; settings: Cancer cell lines
[6] = Cytotoxicity against human melanoma cells after 48 hrs by coulter counter analysis; settings: Melanoma cell
[7] = Cytotoxicity against human CNS cancer cells after 48 hrs by coulter counter analysis; settings: Cancer cell lines
[8] = Cytotoxicity against human colon cancer cells after 48 hrs by coulter counter analysis; settings: Cancer cell lines
[9] = Cytotoxicity against human non-small cell lung cancer cells after 48 hrs by coulter counter analysis; settings: Cancer cell lines
NCI-H322M = test: Cytotoxicity against human NCI-H322M cells assessed as growth inhibition at 10 uM after 48 hrs by coulter counter analysis; settings: read-out: GI
NCI-H23 = test: Cytotoxicity against human NCI-H23 cells assessed as growth inhibition at 10 uM after 48 hrs by coulter counter analysis; settings: NCI-H23, 48 h, read-out: GI
HOP-62 = test: Cytotoxicity against human HOP62 cells assessed as growth inhibition at 10 uM after 48 hrs by coulter counter analysis; settings: HOP-62, 48 h, read-out: GI
[10] = Cytotoxicity against human EKVX cells assessed as growth inhibition at 10 uM after 48 hrs by coulter counter analysis; settings: read-out: GI
A549 = test: Cytotoxicity against human A549 cells assessed as growth inhibition at 10 uM after 48 hrs by coulter counter analysis; settings: A549, 48 h, read-out: GI
MDA-MB-468 = test: Cytotoxicity against human MDA-MB-468 cells assessed as growth inhibition at 10 uM after 48 hrs by coulter counter analysis; settings: MDA-MB-468, 48 h, read-out: GI
T47D = test: Cytotoxicity against human T47D cells assessed as growth inhibition at 10 uM after 48 hrs by coulter counter analysis; settings: read-out: GI
BT-549 = test: Cytotoxicity against human BT549 cells assessed as growth inhibition at 10 uM after 48 hrs by coulter counter analysis; settings: BT-549, 48 h, read-out: GI
Hs-578T = test: Cytotoxicity against human Hs578T cells assessed as growth inhibition at 10 uM after 48 hrs by coulter counter analysis; settings: read-out: GI
MDA-MB-231 = test: Cytotoxicity against human MDA-MB-231 cells assessed as growth inhibition at 10 uM after 48 hrs by coulter counter analysis; settings: MDA-MB-231, 48 h, read-out: GI
DU-145 = test: Cytotoxicity against human DU145 cells assessed as growth inhibition at 10 uM after 48 hrs by coulter counter analysis; settings: DU-145, 48 h, read-out: GI
PC-3 = test: Cytotoxicity against human PC3 cells assessed as growth inhibition at 10 uM after 48 hrs by coulter counter analysis; settings: PC-3, 48 h, read-out: GI
UO-31 = test: Cytotoxicity against human UO31 cells assessed as growth inhibition at 10 uM after 48 hrs by coulter counter analysis; settings: UO-31, 48 h, read-out: GI
TK-10 = test: Cytotoxicity against human TK10 cells assessed as growth inhibition at 10 uM after 48 hrs by coulter counter analysis; settings: TK-10, 48 h, read-out: GI
SN12C = test: Cytotoxicity against human SN12C cells assessed as growth inhibition at 10 uM after 48 hrs by coulter counter analysis; settings: read-out: GI
RXF 393 = test: Cytotoxicity against human RXF393 cells assessed as growth inhibition at 10 uM after 48 hrs by coulter counter analysis; settings: RXF 393, 48 h, read-out: GI
CAKI-1 = test: Cytotoxicity against human Caki1 cells assessed as growth inhibition at 10 uM after 48 hrs by coulter counter analysis; settings: CAKI-1, 48 h, read-out: GI
ACHN = test: Cytotoxicity against human ACHN cells assessed as growth inhibition at 10 uM after 48 hrs by coulter counter analysis; settings: read-out: GI
A498 = test: Cytotoxicity against human A498 cells assessed as growth inhibition at 10 uM after 48 hrs by coulter counter analysis; settings: A498, 48 h, read-out: GI
SK-OV-3 = test: Cytotoxicity against human SKOV3 cells assessed as growth inhibition at 10 uM after 48 hrs by coulter counter analysis; settings: SK-OV-3, 48 h, read-out: GI
[11] = Cytotoxicity against human NCI-ADR-RES cells assessed as growth inhibition at 10 uM after 48 hrs by coulter counter analysis; settings: read-out: GI
OVCAR-8 = test: Cytotoxicity against human OVCAR8 cells assessed as growth inhibition at 10 uM after 48 hrs by coulter counter analysis; settings: OVCAR-8, 48 h, read-out: GI
OVCAR-5 = test: Cytotoxicity against human OVCAR5 cells assessed as growth inhibition at 10 uM after 48 hrs by coulter counter analysis; settings: OVCAR-5, 48 h, read-out: GI
OVCAR-4 = test: Cytotoxicity against human OVCAR4 cells assessed as growth inhibition at 10 uM after 48 hrs by coulter counter analysis; settings: OVCAR-4, 48 h, read-out: GI
OVCAR-3 = test: Cytotoxicity against human OVCAR3 cells assessed as growth inhibition at 10 uM after 48 hrs by coulter counter analysis; settings: OVCAR-3, 48 h, read-out: GI
UACC-62 = test: Cytotoxicity against human UACC62 cells assessed as growth inhibition at 10 uM after 48 hrs by coulter counter analysis; settings: UACC-62, 48 h, read-out: GI
UACC-257 = test: Cytotoxicity against human UACC257 cells assessed as growth inhibition at 10 uM after 48 hrs by coulter counter analysis; settings: UACC-257, 48 h, read-out: GI
SK-MEL-5 = test: Cytotoxicity against human SK-MEL-5 cells assessed as growth inhibition at 10 uM after 48 hrs by coulter counter analysis; settings: SK-MEL-5, 48 h, read-out: GI
SK-MEL-28 = test: Cytotoxicity against human SK-MEL-28 cells assessed as growth inhibition at 10 uM after 48 hrs by coulter counter analysis; settings: SK-MEL-28, 48 h, read-out: GI
MDA-MB-435 = test: Cytotoxicity against human MDA-MB-435 cells assessed as growth inhibition at 10 uM after 48 hrs by coulter counter analysis; settings: MDA-MB-435, 48 h, read-out: GI
M14 = test: Cytotoxicity against human M14 cells assessed as growth inhibition at 10 uM after 48 hrs by coulter counter analysis; settings: M14, 48 h, read-out: GI
Malme-3M = test: Cytotoxicity against human MALME-3M cells assessed as growth inhibition at 10 uM after 48 hrs by coulter counter analysis; settings: read-out: GI
U-251 = test: Cytotoxicity against human U251 cells assessed as growth inhibition at 10 uM after 48 hrs by coulter counter analysis; settings: U-251, 48 h, read-out: GI
SNB-75 = test: Cytotoxicity against human SNB75 cells assessed as growth inhibition at 10 uM after 48 hrs by coulter counter analysis; settings: SNB-75, 48 h, read-out: GI
SNB-19 = test: Cytotoxicity against human SNB19 cells assessed as growth inhibition at 10 uM after 48 hrs by coulter counter analysis; settings: SNB-19, 48 h, read-out: GI
SF-539 = test: Cytotoxicity against human SF539 cells assessed as growth inhibition at 10 uM after 48 hrs by coulter counter analysis; settings: SF-539, 48 h, read-out: GI
SF-295 = test: Cytotoxicity against human SF295 cells assessed as growth inhibition at 10 uM after 48 hrs by coulter counter analysis; settings: SF-295, 48 h, read-out: GI
SW-620 = test: Cytotoxicity against human SW620 cells assessed as growth inhibition at 10 uM after 48 hrs by coulter counter analysis; settings: SW-620, 48 h, read-out: GI
KM12 = test: Cytotoxicity against human KM12 cells assessed as growth inhibition at 10 uM after 48 hrs by coulter counter analysis; settings: KM12, 48 h, read-out: GI
HT-29 = test: Cytotoxicity against human HT-29 cells assessed as growth inhibition at 10 uM after 48 hrs by coulter counter analysis; settings: HT-29, 48 h, read-out: GI
HCT-15 = test: Cytotoxicity against human HCT15 cells assessed as growth inhibition at 10 uM after 48 hrs by coulter counter analysis; settings: HCT-15, 48 h, read-out: GI
HCT-116 = test: Cytotoxicity against human HCT116 cells assessed as growth inhibition at 10 uM after 48 hrs by coulter counter analysis; settings: HCT-116, 48 h, read-out: GI
HCC 2998 = test: Cytotoxicity against human HCC2998 cells assessed as growth inhibition at 10 uM after 48 hrs by coulter counter analysis; settings: HCC 2998, 48 h, read-out: GI
COLO 205 = test: Cytotoxicity against human COLO205 cells assessed as growth inhibition at 10 uM after 48 hrs by coulter counter analysis; settings: COLO 205, 48 h, read-out: GI
NCI-H460 = test: Cytotoxicity against human NCI-H460 cells assessed as growth inhibition at 10 uM after 48 hrs by coulter counter analysis; settings: NCI-H460, 48 h, read-out: GI
[12] = read-out: LC50 (the source's name)

O=c1[nH]cc(F)c(=O)[nH]1 [FLUOROURACIL]
TGI [1]: > 100 µM | GI50 [2]: 76.4 µM | TGI [2]: > 100 µM | GI50 [3]: 45.6 µM | TGI [3]: > 100 µM | GI50 [4]: 22.7 µM | TGI [4]: > 100 µM | CC50 [4, 12]: > 100 µM | GI50 [5]: 61.4 µM | TGI [5]: > 100 µM | GI50 [6]: 70.6 µM | TGI [6]: > 100 µM | TGI [7]: > 100 µM | CC50 [7, 12]: > 100 µM | GI50 [8]: 8.4 µM | TGI [8]: > 100 µM | CC50 [8, 12]: > 100 µM | GI50 [9]: > 100 µM | TGI [9]: > 100 µM | CC50 [9, 12]: > 100 µM

NC(=O)CSc1nc2ccccc2c(=O)n1CCc1ccccc1
inhibition of growth at 10 µM (NCI-H322M): < 10% | inhibition of growth at 10 µM (NCI-H23): < 10% | inhibition of growth at 10 µM (HOP-62): < 10% | inhibition of growth at 10 µM [10]: 10% | inhibition of growth at 10 µM (A549): 12% | inhibition of growth at 10 µM (MDA-MB-468): < 10% | inhibition of growth at 10 µM (T47D): < 10% | inhibition of growth at 10 µM (BT-549): < 10% | inhibition of growth at 10 µM (Hs-578T): < 10% | inhibition of growth at 10 µM (MDA-MB-231): < 10% | inhibition of growth at 10 µM (DU-145): < 10% | inhibition of growth at 10 µM (PC-3): < 10% | inhibition of growth at 10 µM (UO-31): < 10% | inhibition of growth at 10 µM (TK-10): < 10% | inhibition of growth at 10 µM (SN12C): < 10% | inhibition of growth at 10 µM (RXF 393): < 10% | inhibition of growth at 10 µM (CAKI-1): 12% | inhibition of growth at 10 µM (ACHN): 34% | inhibition of growth at 10 µM (A498): < 10% | inhibition of growth at 10 µM (SK-OV-3): < 10% | inhibition of growth at 10 µM [11]: < 10% | inhibition of growth at 10 µM (OVCAR-8): < 10% | inhibition of growth at 10 µM (OVCAR-5): < 10% | inhibition of growth at 10 µM (OVCAR-4): < 10% | inhibition of growth at 10 µM (OVCAR-3): < 10% | inhibition of growth at 10 µM (UACC-62): < 10% | inhibition of growth at 10 µM (UACC-257): < 10% | inhibition of growth at 10 µM (SK-MEL-5): < 10% | inhibition of growth at 10 µM (SK-MEL-28): < 10% | inhibition of growth at 10 µM (MDA-MB-435): < 10% | inhibition of growth at 10 µM (M14): < 10% | inhibition of growth at 10 µM (Malme-3M): < 10% | inhibition of growth at 10 µM (U-251): < 10% | inhibition of growth at 10 µM (SNB-75): < 10% | inhibition of growth at 10 µM (SNB-19): < 10% | inhibition of growth at 10 µM (SF-539): < 10% | inhibition of growth at 10 µM (SF-295): < 10% | inhibition of growth at 10 µM (SW-620): < 10% | inhibition of growth at 10 µM (KM12): < 10% | inhibition of growth at 10 µM (HT-29): < 10% | inhibition of growth at 10 µM (HCT-15): < 10% | inhibition of growth at 10 µM (HCT-116): < 10% | inhibition of growth at 10 µM (HCC 2998): < 10% | inhibition of growth at 10 µM (COLO 205): < 10% | inhibition of growth at 10 µM (NCI-H460): < 10%
